In patent publication US10800816B2 (Baxalta GmbH, priority 2012, dated 2020):
pIC50: −log10 of the molar value.

System: not listed separately
Assay: Pharmacokinetics in C57Bl6 mice
Format: in vivo, mouse
Conditions: 1 mg/kg peptide content, intravenous, 1 mg/kg

Compound	HL_λ_z [h] (intravenous)
Ac-FQSKpNVHVDGYFERL-Aib-AKLC(PEG)-NH2 [JBT2326] (FQSKPNVHVDGYFERLXAKLC; acetyl, D-Pro, Aib, Cys-PEG 12.1 kD, amide; MOD_RES (1)..(1): N-terminal acetylation; MOD_RES (5)..(5): D-Pro; MOD_RES (17)..(17): Xaa is 2-amino-isobutyric acid; MOD_RES (21)..(21): Cys-PEG; MOD_RES (21)..(21): C-terminal amidation)	0.35
Ac-FQSKpNVHVDGYFERL-Aib-AKLC(PEG)-NH2 [JBT2327] (FQSKPNVHVDGYFERLXAKLC; acetyl, D-Pro, Aib, Cys-PEG 21.0 kD, amide; MOD_RES (1)..(1): N-terminal acetylation; MOD_RES (5)..(5): D-Pro; MOD_RES (17)..(17): Xaa is 2-amino-isobutyric acid; MOD_RES (21)..(21): Cys-PEG; MOD_RES (21)..(21): C-terminal amidation) [PEG 21.0 kD, linear maleimide PEG]	4.2
Ac-FQSKpNVHVDGYFERL-Aib-AKLC(PEG)-NH2 [JBT2328] (FQSKPNVHVDGYFERLXAKLC; acetyl, D-Pro, Aib, Cys-PEG 29.1 kD, amide; MOD_RES (1)..(1): N-terminal acetylation; MOD_RES (5)..(5): D-Pro; MOD_RES (17)..(17): Xaa is 2-amino-isobutyric acid; MOD_RES (21)..(21): Cys-PEG; MOD_RES (21)..(21): C-terminal amidation) [PEG 29.1 kD, linear maleimide PEG]	10.1
Ac-FQSKpNVHVDGYFERL-Aib-AKLC(PEG)-NH2 [JBT2325] (FQSKPNVHVDGYFERLXAKLC; acetyl, D-Pro, Aib, Cys-PEG 5.3 kD, amide; MOD_RES (1)..(1): N-terminal acetylation; MOD_RES (5)..(5): D-Pro; MOD_RES (17)..(17): Xaa is 2-amino-isobutyric acid; MOD_RES (21)..(21): Cys-PEG; MOD_RES (21)..(21): C-terminal amidation) [PEG 5.3 kD, linear maleimide PEG]	0.16

Same assay, conditions: 1 mg/kg peptide content, s.c. AUC vs i.v. AUC, 1 mg/kg

Compound	Bioavailability [%] (s.c.)
Ac-FQSKpNVHVDGYFERL-Aib-AKLC(PEG)-NH2 [JBT2326] (FQSKPNVHVDGYFERLXAKLC; acetyl, D-Pro, Aib, Cys-PEG 12.1 kD, amide; MOD_RES (1)..(1): N-terminal acetylation; MOD_RES (5)..(5): D-Pro; MOD_RES (17)..(17): Xaa is 2-amino-isobutyric acid; MOD_RES (21)..(21): Cys-PEG; MOD_RES (21)..(21): C-terminal amidation)	76.0
Ac-FQSKpNVHVDGYFERL-Aib-AKLC(PEG)-NH2 [JBT2327] (FQSKPNVHVDGYFERLXAKLC; acetyl, D-Pro, Aib, Cys-PEG 21.0 kD, amide; MOD_RES (1)..(1): N-terminal acetylation; MOD_RES (5)..(5): D-Pro; MOD_RES (17)..(17): Xaa is 2-amino-isobutyric acid; MOD_RES (21)..(21): Cys-PEG; MOD_RES (21)..(21): C-terminal amidation) [PEG 21.0 kD, linear maleimide PEG]	89.7
Ac-FQSKpNVHVDGYFERL-Aib-AKLC(PEG)-NH2 [JBT2328] (FQSKPNVHVDGYFERLXAKLC; acetyl, D-Pro, Aib, Cys-PEG 29.1 kD, amide; MOD_RES (1)..(1): N-terminal acetylation; MOD_RES (5)..(5): D-Pro; MOD_RES (17)..(17): Xaa is 2-amino-isobutyric acid; MOD_RES (21)..(21): Cys-PEG; MOD_RES (21)..(21): C-terminal amidation) [PEG 29.1 kD, linear maleimide PEG]	52.0
Ac-FQSKpNVHVDGYFERL-Aib-AKLC(PEG)-NH2 [JBT2325] (FQSKPNVHVDGYFERLXAKLC; acetyl, D-Pro, Aib, Cys-PEG 5.3 kD, amide; MOD_RES (1)..(1): N-terminal acetylation; MOD_RES (5)..(5): D-Pro; MOD_RES (17)..(17): Xaa is 2-amino-isobutyric acid; MOD_RES (21)..(21): Cys-PEG; MOD_RES (21)..(21): C-terminal amidation) [PEG 5.3 kD, linear maleimide PEG]	58.2

System: not listed separately
Assay: FIGURE 78O
Conditions: not given

24 h Mouse Plasma Stability | Mean Remaining [%]	Compound	24 h Human Plasma Stability | Mean Remaining [%]
92.50	Ac-FQSKpNVHV-C(ME-400MA)-GYFERL-Aib-AKL-NH2 [JBT00002403]	96.70
–	CCN1C(=O)CC(SC[C@H](NC(=O)[C@H]2CCCN2C(=O)[C@H](CCCCN)NC(=O)[C@H](CO)NC(=O)[C@H](CCC(N)=O)NC(=O)[C@H](Cc2ccccc2)NC(C)=O)C(=O)N[C@H](C(=O)N[C@@H](Cc2c[nH]cn2)C(=O)N[C@H](C(=O)N[C@@H](CC(=O)O)C(=O)NCC(=O)N[C@@H](Cc2ccc(O)cc2)C(=O)N[C@@H](Cc2ccccc2)C(=O)N[C@@H](CCC(=O)O)C(=O)N[C@@H](CCCNC(=N)N)C(=O)N[C@@H](CC(C)C)C(=O)NC(C)(C)C(=O)N[C@@H](C)C(=O)N[C@@H](CCCCN)C(=O)N[C@@H](CC(C)C)C(N)=O)C(C)C)C(C)C)C1=O (stereo partly shown) [JBT00002397]	10.60
–	CCSC1CC(=O)N(CCC(=O)NCCCOCCOCCOCCCNC(=O)CCC(=O)NCCCC[C@H](NC(=O)[C@H](CC(C)C)NC(=O)[C@H](CCCCN)NC(=O)[C@H](C)NC(=O)C(C)(C)NC(=O)[C@H](CC(C)C)NC(=O)[C@H](CCCNC(=N)N)NC(=O)[C@H](CCC(=O)O)NC(=O)[C@H](Cc2ccccc2)NC(=O)[C@H](Cc2ccc(O)cc2)NC(=O)CNC(=O)[C@H](CC(=O)O)NC(=O)[C@@H](NC(=O)[C@H](Cc2c[nH]cn2)NC(=O)[C@@H](NC(=O)[C@H](CC(N)=O)NC(=O)[C@H]2CCCN2C(=O)[C@H](CCCCN)NC(=O)[C@H](CO)NC(=O)[C@H](CCC(N)=O)NC(=O)[C@H](Cc2ccccc2)NC(C)=O)C(C)C)C(C)C)C(N)=O)C1=O (stereo partly shown) [JBT00002400]	60.00
99.70	Ac-FQSKp-C(ME-400MA)-VHVDGYFERL-Aib-AKL-NH2 [JBT00002402]	75.30
–	CCN1C(=O)CC(SC[C@H](NC(=O)[C@H](Cc2ccccc2)NC(=O)[C@H](Cc2ccc(O)cc2)NC(=O)CNC(=O)[C@H](CC(=O)O)NC(=O)[C@@H](NC(=O)[C@H](Cc2c[nH]cn2)NC(=O)[C@@H](NC(=O)[C@H](CC(N)=O)NC(=O)[C@H]2CCCN2C(=O)[C@H](CCCCN)NC(=O)[C@H](CO)NC(=O)[C@H](CCC(N)=O)NC(=O)[C@H](Cc2ccccc2)NC(C)=O)C(C)C)C(C)C)C(=O)N[C@@H](CCCNC(=N)N)C(=O)N[C@@H](CC(C)C)C(=O)NC(C)(C)C(=O)N[C@@H](C)C(=O)N[C@@H](CCCCN)C(=O)N[C@@H](CC(C)C)C(N)=O)C1=O (stereo partly shown) [JBT00002399]	10.70

Compound	24 h Mouse Plasma Stability | Mean Remaining [%]	24 h Human Plasma Stability | Mean Remaining [%]
CCN1C(=O)CC(SC[C@H](NC(=O)[C@@H](NC(=O)[C@H](Cc2c[nH]cn2)NC(=O)[C@@H](NC(=O)[C@H](CC(N)=O)NC(=O)[C@H]2CCCN2C(=O)[C@H](CCCCN)NC(=O)[C@H](CO)NC(=O)[C@H](CCC(N)=O)NC(=O)[C@H](Cc2ccccc2)NC(C)=O)C(C)C)C(C)C)C(=O)NCC(=O)N[C@@H](Cc2ccc(O)cc2)C(=O)N[C@@H](Cc2ccccc2)C(=O)N[C@@H](CCC(=O)O)C(=O)N[C@@H](CCCNC(=N)N)C(=O)N[C@@H](CC(C)C)C(=O)NC(C)(C)C(=O)N[C@@H](C)C(=O)N[C@@H](CCCCN)C(=O)N[C@@H](CC(C)C)C(N)=O)C1=O (stereo partly shown) [JBT00002398, Ac-FQSKpNVHV-C(NEM)-GYFERL-Aib-AKL-NH2]	21.60	39.05

System: not listed separately
Assay: FIGURE 78P
Conditions: not given

Compound	24 h Mouse Plasma Stability | Mean Remaining [%]	24 h Human Plasma Stability | Mean Remaining [%]
Ac-FQSKpNVHVDGYFERL-Aib-AKLK(Ttds-Maleimid-HSA)- NH2 [JBT00002410]	79.15	–
CC(C)C[C@@H]1NC(=O)[C@H](CCCCN)NC(=O)[C@H](C)NC(=O)C(C)(C)NC(=O)[C@H](CC(C)C)NC(=O)[C@H](CCCNC(=N)N)NC(=O)[C@H](CCC(=O)O)NC(=O)[C@H](Cc2ccccc2)NC(=O)[C@H](Cc2ccc(O)cc2)NC(=O)CNC(=O)[C@H](CC(=O)O)NC(=O)[C@H](C(C)C)NC(=O)[C@H](Cc2c[nH]cn2)NC(=O)[C@H](C(C)C)NC(=O)[C@H](CC(N)=O)NC(=O)[C@H]2CCCN2C(=O)[C@H](CCCCN)NC(=O)[C@H](CO)NC(=O)[C@H](CCC(N)=O)NC(=O)[C@H](Cc2ccccc2)NC(=O)CCOCCOCCOCCOCCNC1=O [JBT00002406]	38.10	62.80
Ac-FQSKpNVHVDGYF-C(ME-400MA)-RL-Aib-AKL-NH2 [JBT00002404]	93.20	–
CC(C)C[C@@H]1NC(=O)[C@H](CCCCN)NC(=O)[C@H](C)NC(=O)C(C)(C)NC(=O)[C@H](CC(C)C)NC(=O)[C@H](CCCNC(=N)N)NC(=O)[C@H](CCC(=O)O)NC(=O)[C@H](Cc2ccccc2)NC(=O)[C@H](Cc2ccc(O)cc2)NC(=O)CNC(=O)[C@H](CC(=O)O)NC(=O)[C@H](C(C)C)NC(=O)[C@H](Cc2c[nH]cn2)NC(=O)[C@H](C(C)C)NC(=O)[C@H](CC(N)=O)NC(=O)[C@H]2CCCN2C(=O)[C@H](CCCCN)NC(=O)[C@H](CO)NC(=O)[C@H](CCC(N)=O)NC(=O)[C@H](Cc2ccccc2)NC(=O)CCOCCOCCOCCNC1=O [JBT00002407]	–	45.20
CC(C)C[C@@H]1NC(=O)[C@H](CCCCN)NC(=O)[C@H](C)NC(=O)C(C)(C)NC(=O)[C@H](CC(C)C)NC(=O)[C@H](CCCNC(=N)N)NC(=O)[C@H](CCC(=O)O)NC(=O)[C@H](Cc2ccccc2)NC(=O)[C@H](Cc2ccc(O)cc2)NC(=O)CNC(=O)[C@H](CC(=O)O)NC(=O)[C@H](C(C)C)NC(=O)[C@H](Cc2c[nH]cn2)NC(=O)[C@H](C(C)C)NC(=O)[C@H](CC(N)=O)NC(=O)[C@H]2CCCN2C(=O)[C@H](CCCCN)NC(=O)[C@H](CO)NC(=O)[C@H](CCC(N)=O)NC(=O)[C@H](Cc2ccccc2)NC(=O)COCCOCCNC1=O [JBT00002408]	39.40	61.60
CC(C)C[C@@H]1NC(=O)[C@H](CCCCN)NC(=O)[C@H](C)NC(=O)C(C)(C)NC(=O)[C@H](CC(C)C)NC(=O)[C@H](CCCNC(=N)N)NC(=O)[C@H](CCC(=O)O)NC(=O)[C@H](Cc2ccccc2)NC(=O)[C@H](Cc2ccc(O)cc2)NC(=O)CNC(=O)[C@H](CC(=O)O)NC(=O)[C@H](C(C)C)NC(=O)[C@H](Cc2c[nH]cn2)NC(=O)[C@H](C(C)C)NC(=O)[C@H](CC(N)=O)NC(=O)[C@H]2CCCN2C(=O)[C@H](CCCCN)NC(=O)[C@H](CO)NC(=O)[C@H](CCC(N)=O)NC(=O)[C@H](Cc2ccccc2)NC(=O)CCOCCOCCOCCOCCOCCNC1=O [JBT00002405]	–	55.90

System: TFPI
Assay: IC50 ELISA | Mean IC50 [nM]
Conditions: not given
Description: Table printed on a drawing sheet, FIGURE 78Z
Head of the field: IC50 ELISA | Mean IC50 [nM]
First copying reader's note: Continued table: the first body row (45.67) belongs to a compound on the preceding sheet, the last row probably continues on the next sheet, and cells with several values list single replicates.

pIC50	Compound
8.40	Hex-FQSKp-Cys(Acm)-VH-Tle-DaYFERL-Aib-AKLK(Ttds- Ac)--NH2 [JBT00002540]
7.15	Hex-FQSKp-Cys(Acm)-VH-Tle-DaYFERL-Aib-AK-OH [JBT00002543]
7.81	Hex-FQSKp-Cys(Acm)-VH-Tle-DaYFERL-Aib-AKLC(ME- 400MA)-NH2 [JBT00002534]
7.61	Hex-FQSKp-Cys(Acm)-VH-Tle-DaYFERL-Aib-AKLK(Ttds- gGlu-Myr)--NH2 [JBT00002541]
8.00	Hex-FQSKp-Cys(Acm)-VH-Tle-DaYFERL-Aib-AKL-Ttds- K(Ttds-Myr)--NH2 [JBT00002539]
8.51	(Hex-FQSKp-Cys(Acm)-VH-Tle-DaYFERL-Aib-AKLC- NH2)2-M2TriO [JBT00002533]
